Several values for one entry are separate records, joined by “and”; a condition that tells them apart may be missing. Identical values can stand only once.
Experiments:
K-Ras G13C = K-Ras G13C (Homo sapiens (Human), UniProt P01116+P62937, G13C); assay: Ras-Raf (BRAF RBD) disruption / FRET / MOA assay, KRAS G13C; assay type: biochemical; details: KRAS G13C; Ras-Raf disruption/FRET/MOA assay; read-out: IC50* KRAS G13C FRET data
Description: (§1) The purpose of this biochemical assay is to measure the ability of test compounds to facilitate ternary complex formation between a nucleotide-loaded Ras isoform and cyclophilin A; the resulting ternary complex disrupts binding to a BRAF^RBD construct, inhibiting Ras signaling through a RAF effector.
(§2) Compound is present in plate wells as a 10-point 3-fold dilution series starting at a final concentration of 30 μM. After incubation at 25° C. for 3 hours, a mixture of Anti-His Eu-W1024 and anti-GST allophycocyanin is then added to assay sample wells at final concentrations of 10 nM and 50 nM, respectively, and the reaction incubated for an additional 1.5 hours. […] Compounds that facilitate disruption of a Ras:RAF complex are identified as those eliciting a decrease in the TR-FRET ratio relative to DMSO control wells.
(§3) This protocol may also be executed substituting other Ras proteins or nucleotides.
(§4) The purpose of this biochemical assay was to measure the ability of test compounds to facilitate ternary complex formation between a nucleotide-loaded K-Ras isoform and Cyclophilin A; the resulting ternary complex disrupts binding to a BRAF^RBD construct, inhibiting K-Ras signaling through a RAF effector. Data is reported as IC50 values.
as §2, with “Compound was” for “Compound is”, “allophycocyanin was” for “allophycocyanin is”, “a K-Ras:RAF” for “a Ras:RAF”, “complex were” for “complex are”

KRAS G12S = KRAS G12S (Homo sapiens (Human), UniProt P01116+P62937, G12S); assay: Ras-Raf (BRAF RBD) disruption / FRET / MOA assay, KRAS G12S; assay type: biochemical; details: Ras-Raf disruption/FRET/MOA assay; class symbols; read-out: KRAS G12S FRET data IC50
Sequence of KRAS G12S (P01116-2 other isoform, or with tags, fused parts or gaps G12S): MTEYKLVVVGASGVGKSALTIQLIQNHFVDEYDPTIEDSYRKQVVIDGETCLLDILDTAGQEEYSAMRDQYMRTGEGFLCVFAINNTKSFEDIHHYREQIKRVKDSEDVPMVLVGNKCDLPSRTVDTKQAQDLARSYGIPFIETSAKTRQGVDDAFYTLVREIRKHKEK
Sequence of KRAS G12S (P62937 whole entry): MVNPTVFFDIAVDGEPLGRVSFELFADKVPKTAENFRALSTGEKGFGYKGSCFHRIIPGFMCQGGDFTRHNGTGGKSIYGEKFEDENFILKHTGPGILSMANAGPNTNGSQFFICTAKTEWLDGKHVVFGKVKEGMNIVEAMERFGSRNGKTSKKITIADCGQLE
How it was run: (§5)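 Compounds, top final concentration 30 μM in 10-point 3-fold series, incubated 3 hours at 25° C with nucleotide-loaded Ras, cyclophilin A and BRAF RBD.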

KRAS G12D = KRAS G12D (Homo sapiens (Human), UniProt P01116+P62937, G12D); assay: Ras-Raf (BRAF RBD) disruption / FRET / MOA assay, KRAS G12D; assay type: biochemical; details: Ras-Raf disruption/FRET/MOA assay; class symbols; read-out: KRAS G12D FRET data IC50
Sequence of KRAS G12D (P01116-2 other isoform, or with tags, fused parts or gaps G12D): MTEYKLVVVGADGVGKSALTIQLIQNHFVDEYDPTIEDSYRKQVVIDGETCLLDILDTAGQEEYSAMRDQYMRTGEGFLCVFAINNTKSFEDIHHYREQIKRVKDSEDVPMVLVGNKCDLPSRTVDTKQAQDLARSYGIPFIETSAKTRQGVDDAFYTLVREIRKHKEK
Sequence of KRAS G12D (P62937 whole entry): as the sequence (P62937 whole entry) above
How it was run: as §5

[1] = tested on: NCI-H358 cells (K-Ras G12C); assay: Potency assay: pERK in NCI-H358 cells; assay type: cell-based, human; details: Homo sapiens, NCI-H358; H358 KRAS G12C; read-out: pERK EC50
How it was run: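 Inhibition of cellular pERK after a 4 h treatment, detected by AlphaLISA or In-Cell Western. IC50 from a four-parameter concentration-response fit.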

KRAS WT = KRAS WT (Homo sapiens (Human), UniProt P01116+P62937); assay: Ras-Raf (BRAF RBD) disruption / FRET / MOA assay, KRAS WT; assay type: biochemical; details: read-out: IC50* KRAS WT FRET data
Sequence of KRAS WT (P01116-2 other isoform, or with tags, fused parts or gaps): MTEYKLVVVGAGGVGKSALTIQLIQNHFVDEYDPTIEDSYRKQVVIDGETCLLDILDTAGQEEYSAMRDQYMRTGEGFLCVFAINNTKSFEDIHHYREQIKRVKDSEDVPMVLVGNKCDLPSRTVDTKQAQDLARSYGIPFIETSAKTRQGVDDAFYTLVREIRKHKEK
Sequence of KRAS WT (P62937 whole entry): as the sequence (P62937 whole entry) above
Description: as §1, §2, §3, §4
as §2, with “Compound was” for “Compound is”, “allophycocyanin was” for “allophycocyanin is”, “a K-Ras:RAF” for “a Ras:RAF”, “complex were” for “complex are”

K-Ras G12C = K-Ras G12C (Homo sapiens (Human), UniProt P01116+P62937, G12C); assay: Ras-Raf (BRAF RBD) disruption / FRET / MOA assay, KRAS G12C; assay type: biochemical; details: KRAS G12C; Ras-Raf disruption/FRET/MOA assay; read-out: IC50* KRAS G12C FRET data
Sequence of K-Ras G12C (P01116-2 other isoform, or with tags, fused parts or gaps G12C): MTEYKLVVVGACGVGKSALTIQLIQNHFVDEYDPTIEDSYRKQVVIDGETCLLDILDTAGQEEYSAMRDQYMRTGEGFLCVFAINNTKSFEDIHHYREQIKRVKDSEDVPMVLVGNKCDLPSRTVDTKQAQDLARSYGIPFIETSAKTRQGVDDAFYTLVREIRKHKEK
Sequence of K-Ras G12C (P62937 whole entry): as the sequence (P62937 whole entry) above
Description: as §1, §2, §3, §4
as §2, with “Compound was” for “Compound is”, “allophycocyanin was” for “allophycocyanin is”, “a K-Ras:RAF” for “a Ras:RAF”, “complex were” for “complex are”

NRAS G12C = NRAS G12C (Homo sapiens (Human), UniProt P01111+P62937, G12C); assay: Ras-Raf (BRAF RBD) disruption / FRET / MOA assay, NRAS G12C; assay type: biochemical; details: read-out: IC50* NRAS G12C FRET data
Sequence of NRAS G12C (P01111 whole entry G12C): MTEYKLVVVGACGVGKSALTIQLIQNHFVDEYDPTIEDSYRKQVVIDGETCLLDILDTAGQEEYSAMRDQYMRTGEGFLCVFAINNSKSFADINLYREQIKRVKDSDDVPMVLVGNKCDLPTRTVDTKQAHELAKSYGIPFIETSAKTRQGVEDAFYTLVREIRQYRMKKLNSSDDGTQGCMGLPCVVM
Sequence of NRAS G12C (P62937 whole entry): as the sequence (P62937 whole entry) above
Description: as §1, §2
This protocol may also be executed substituting other Ras proteins or nucleotides. […]

KRAS G13D = KRAS G13D (Homo sapiens (Human), UniProt P01116+P62937, G13D); assay: Ras-Raf (BRAF RBD) disruption / FRET / MOA assay, KRAS G13D; assay type: biochemical; details: read-out: IC50* KRAS G13D FRET data
Sequence of KRAS G13D (P01116-2 other isoform, or with tags, fused parts or gaps G13D): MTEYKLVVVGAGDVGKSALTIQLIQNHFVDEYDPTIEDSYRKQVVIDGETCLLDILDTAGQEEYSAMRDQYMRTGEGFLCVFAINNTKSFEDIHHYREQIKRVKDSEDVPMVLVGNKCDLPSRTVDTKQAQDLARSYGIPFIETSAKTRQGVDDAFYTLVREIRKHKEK
Sequence of KRAS G13D (P62937 whole entry): as the sequence (P62937 whole entry) above
Description: as §1, §2, §3, §4
as §2, with “Compound was” for “Compound is”, “allophycocyanin was” for “allophycocyanin is”, “a K-Ras:RAF” for “a Ras:RAF”, “complex were” for “complex are”

KRAS G12V = KRAS G12V (Homo sapiens (Human), UniProt P01116+P62937, G12V); assay: Ras-Raf (BRAF RBD) disruption / FRET / MOA assay, KRAS G12V; assay type: biochemical; details: read-out: IC50* KRAS G12V FRET data
Sequence of KRAS G12V (P01116-2 other isoform, or with tags, fused parts or gaps G12V): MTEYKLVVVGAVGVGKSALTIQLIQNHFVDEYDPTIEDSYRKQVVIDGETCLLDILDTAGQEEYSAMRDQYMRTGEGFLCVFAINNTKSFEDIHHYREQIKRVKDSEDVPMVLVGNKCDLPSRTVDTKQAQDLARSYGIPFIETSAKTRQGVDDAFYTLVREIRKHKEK
Sequence of KRAS G12V (P62937 whole entry): as the sequence (P62937 whole entry) above
Description: as §1, §2, §3, §4
as §2, with “Compound was” for “Compound is”, “allophycocyanin was” for “allophycocyanin is”, “a K-Ras:RAF” for “a Ras:RAF”, “complex were” for “complex are”

Sequence of K-Ras G13C (P01116-2 other isoform, or with tags, fused parts or gaps G13C): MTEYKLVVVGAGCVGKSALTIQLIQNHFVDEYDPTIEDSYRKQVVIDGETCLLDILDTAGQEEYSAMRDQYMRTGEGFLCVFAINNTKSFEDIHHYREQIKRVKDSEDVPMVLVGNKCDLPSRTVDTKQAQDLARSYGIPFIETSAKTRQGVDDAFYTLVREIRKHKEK
Sequence of K-Ras G13C (P62937 whole entry, canonical isoform): as the sequence (P62937 whole entry) above

| SMILES | IC50 (K-Ras G13C) | IC50 (KRAS G12S) | IC50 (KRAS G12D) | EC50 [1] [µM] | IC50 (KRAS WT) | IC50 (K-Ras G12C) | IC50 (NRAS G12C) | IC50 (KRAS G13D) | IC50 (KRAS G12V) |
| --- | --- | --- | --- | --- | --- | --- | --- | --- | --- |
| CCn1c(-c2cccnc2[C@H](C)OC)c2c3cc(ccc31)-c1cc(O)cc(c1)C[C@H](NC(=O)[C@H](C(C)C)N(C)C(=O)[C@H]1CCN(C(=O)/C=C/CN3CCOCC3)C1)C(=O)N1CCC[C@H](N1)C(=O)OCC(C)(C)C2 (atropisomer, axis not shown) [Example A184] | 0.1 to 1 µM and > 10 µM | 1 to 10 µM and 0.01 to 0.1 µM | > 10 µM and 0.1 to 1 µM | < 5 | 0.1 to 1 µM and > 10 µM | 0.1 to 1 µM and < 0.01 µM | 0.1 to 1 µM and < 0.01 µM | 0.1 to 1 µM and > 10 µM | 1 to 10 µM and 0.01 to 0.1 µM |
| CCn1c(-c2cccnc2[C@H](C)OC)c2c3cc(ccc31)-c1cccc(c1)C[C@H](NC(=O)[C@H](C(C)C)N(C)C(=O)[C@H]1CCN(C(=O)/C=C/CN(C)C)C1)C(=O)N1CCC[C@H](N1)C(=O)OCC(C)(C)C2 (atropisomer, axis not shown) [Example A187] | > 10 µM and 1 to 10 µM | 1 to 10 µM and > 10 µM | > 10 µM | < 5 | 1 to 10 µM and > 10 µM | 0.01 to 0.1 µM and 1 to 10 µM | 0.01 to 0.1 µM and 1 to 10 µM | 1 to 10 µM and > 10 µM | 1 to 10 µM and > 10 µM |
| CCn1c(-c2cccnc2[C@H](C)OC)c2c3cc(ccc31)-c1cccc(c1)C[C@H](NC(=O)[C@H](C(C)C)N(C)C(=O)[C@H]1CCN(C(=O)C#CCN3CCOCC3)C1)C(=O)N1CCC[C@H](N1)C(=O)OCC(C)(C)C2 (atropisomer, axis not shown) [Example A191] | 1 to 10 µM and > 10 µM | > 10 µM | > 10 µM | < 5 | > 10 µM | 0.01 to 0.1 µM and 0.1 to 1 µM | 0.01 to 0.1 µM and 1 to 10 µM | > 10 µM | 1 to 10 µM and > 10 µM |
| C=CC(=O)N1CC[C@H](C(=O)N(C)[C@H](C(=O)N[C@H]2Cc3cc(O)cc(c3)-c3ccc4c(c3)c(c(-c3cccnc3[C@@H](OC)C3CC3)n4CC)CC(C)(C)COC(=O)[C@@H]3CCCN(N3)C2=O)C(C)C)C1 (atropisomer, axis not shown) [Example A206] | 1 to 10 µM | 0.1 to 1 µM | > 10 µM | < 5 | 1 to 10 µM | 0.1 to 1 µM | 0.1 to 1 µM | 1 to 10 µM | 0.1 to 1 µM |
| CCn1c(-c2cccnc2[C@H](C)OC)c2c3cc(ccc31)-c1cc(O)cc(c1)C[C@H](NC(=O)[C@H](C(C)C)N(C)C(=O)c1ccc(NC(=O)/C=C/CN(C)C)cn1)C(=O)N1CCC[C@H](N1)C(=O)OCC(C)(C)C2 (atropisomer, axis not shown) [Example A251] | 0.01 to 0.1 µM and < 0.01 µM | 0.1 to 1 µM and 1 to 10 µM | 1 to 10 µM and > 10 µM | < 5 | 0.1 to 1 µM and 1 to 10 µM | 0.01 to 0.1 µM | 0.01 to 0.1 µM | 0.1 to 1 µM and 1 to 10 µM | 0.1 to 1 µM and 1 to 10 µM |

Now from value to compound:

| IC50 (K-Ras G13C) | IC50 (KRAS G12S) | IC50 (KRAS G12D) | EC50 [1] [µM] | IC50 (KRAS WT) | IC50 (K-Ras G12C) | IC50 (NRAS G12C) | IC50 (KRAS G13D) | IC50 (KRAS G12V) | SMILES |
| --- | --- | --- | --- | --- | --- | --- | --- | --- | --- |
| 0.1 to 1 µM and 1 to 10 µM | 1 to 10 µM and > 10 µM | 1 to 10 µM | < 5 | 1 to 10 µM and > 10 µM | 0.1 to 1 µM and < 0.01 µM | 0.1 to 1 µM and < 0.01 µM | 1 to 10 µM | 1 to 10 µM and > 10 µM | CCn1c(-c2cnccc2COC)c2c3cc(ccc31)-c1cccc(c1)C[C@H](NC(=O)[C@H](C(C)C)N(C)C(=O)[C@H]1CCN(C(=O)C#CCN(C)C)C1)C(=O)N1CCC[C@H](N1)C(=O)OCC(C)(C)C2 (atropisomer, axis not shown) [Example A120] |
| 0.01 to 0.1 µM and 1 to 10 µM | 1 to 10 µM and 0.01 to 0.1 µM | 1 to 10 µM and 0.01 to 0.1 µM | < 5 | 1 to 10 µM and 0.01 to 0.1 µM | 0.01 to 0.1 µM and < 0.01 µM | 0.01 to 0.1 µM and < 0.01 µM | 1 to 10 µM and 0.01 to 0.1 µM | 0.1 to 1 µM and 0.01 to 0.1 µM | CCn1c(-c2cccnc2[C@H](C)OC)c2c3cc(ccc31)-c1cc(O)cc(c1)C[C@H](NC(=O)[C@H](C(C)C)N(C)C(=O)[C@H]1CCN(C(=O)/C=C/CN(C)C)C1)C(=O)N1CCC[C@H](N1)C(=O)OCC(C)(C)C2 (atropisomer, axis not shown) [Example A183] |

— patent publication US11566007B2, “Ras inhibitors” (Revolution Medicines, Inc., priority 2019, dated 2023)
